Test results reported in patent US9267949B2, “Alkylamino BODIPY dyes as selective fluorescent probes for proteins and mouse embryonic stem cells” (National University of Singapore, priority 2011, dated 2016).

Legend:
[1] = Spectroscopic properties of the BDM library (absorbance and emission maxima); assay type: physicochemical
[2] = Quantum yield measurements; assay type: physicochemical; conditions: referred to Rhodamine B in EtOH, excitation 510 nm, emission integrated 540-800 nm
Method in brief: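 Integrated fluorescence emission from 540 to 800 nm was referenced to Rhodamine B in EtOH (Φ=0.70) after excitation at 510 nm. Quantum yield was calculated with correction for solvent refractive index and absorbance at the excitation wavelength.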

human IgG [3] = experiment: Screening the BDM library: fluorescence response against proteins and peptides; assay type: binding; conditions: 10 μM dye
Description: Fluorescence intensities were measured using a Spectra Max Gemini XSF plate reader in a 384-well plate. BDM compounds were dissolved to a final concentration of 10 μM (20 mM HEPES buffer, pH 7.4, containing 1% DMSO) and incubated with different proteins and peptides at different serial concentrations in 20 mM HEPES buffer (pH 7.4) (FIG. 1a). The excitation wavelength was set at 510 nm, and the emission spectra were recorded from 560 to 700 nm. Fluorescence fold increase ratios were determined by referring the maximum fluorescence intensity emission of BDM compounds in the presence of the screened proteins and peptides to the maximum fluorescence intensity emission of BDM compounds in 20 mM HEPES buffer (pH 7.4) (FIG. 1b).

human IgG [4] = experiment: Surface plasmon resonance on immobilized immunoglobulin chip; assay type: binding; conditions: 25° C., read-out: KD (SPR, steady-state model)
Excerpt: The following experiments were aimed at determining the dissociation constant of the interaction between Ig Orange and human IgG. Surface Plasmon Resonance (SPR) has been extensively used to measure the binding constants between small molecules and biopolymers, 25 and we modified human IgG with biotin so that it could be immobilized on a neutravidin-coated sensor chip. Upon immobilization of the biotinylated protein on a neutravidin-coated sensor chip CM7, we performed Ig Orange titrations in duplicate with increasing concentrations of the small molecule.
Human IgG (5.0 mg, 0.033 μmol) and biotin-OSu (0.11 mg, 0.33 μmol) were dissolved in 0.1 M NaHCO3 (pH 8.5) and shaken for 1 h at 25° C. […] The fluorescence response of Ig Orange to IgG and biotinylated IgG was compared (FIG. 5). The concentration of biotinylated IgG before fluorescence and SPR experiments was determined by Bradford assay. […] Job Plot Analysis: Ig Orange (final concentrations: 0, 1.6, 3.2, 4.8, 6.4, 8.0, 9.6, 11.2, 12.8, 14.4, 16 μM) and human IgG (final concentrations: 16, 14.4, 12.8, 11.2, 9.6, 8.0, 6.4, 4.8, 3.2, 1.6, 0 μM) were incubated in PBS buffer (pH 7.3) containing 1% DMSO, and the fluorescence intensities of the different solutions were recorded on a SpectraMax M2 plate reader (excitation: 530 nm; emission: 590 nm). […]

human IgG [5] = experiment: Fluorescence-based fractional saturation curve; conditions: 10 μM dye, 20 mM HEPES pH 7.4, exc 530 nm, em 590 nm; read-out: dissociation constant Kd (fluorescence binding saturation curve)
Description: Ig Orange (10 μM) was incubated with different concentrations of human IgG in 20 mM HEPES buffer (pH 7.4) and the fluorescence intensities were recorded on a SpectraMax M2 plate reader (excitation: 530 nm; emission: 590 nm) (FIG. 9).

[6] = tested on: Fab and Fc fragments of human IgG1; experiment: Fluorescence increase with Fab and Fc fragments; assay type: binding; conditions: Fab vs Fc fragments of human monoclonal IgG1
Description: FIGS. 6a and 6b show binding sensorgrams of Ig Orange (0.07, 0.21, 0.62, 1.86, 5.57 and 16.70 μM) upon injection across an immobilized immunoglobulin chip, which were fit using the equilibrium responses of a steady-state model. […] Values are represented as means (n=3) and error bars as standard deviations.
In order to identify the region of human IgG to which Ig Orange binds, we evaluated the fluorescence response of Ig Orange in the presence of human polyclonal IgG and monoclonal IgG1, the most abundant subtype. […] To confirm this observation and determine the stoichiometry of the complex between Ig Orange and the full immunoglobulin, we analyzed the interaction by means of a Job plot. A maximum fluorescence increase was detected for a 2:1 Ig Orange:immunoglobulin ratio, which supported our observation that the preferred binding region of Ig Orange corresponded to the Fab fragments of the immunoglobulin (FIG. 7b). […] With this first adaptation of the BODIPY scaffold to a solid-phase approach we accelerated the development of alkylamino BODIPY-based fluorescent probes, being Ig Orange the first immunoglobulin fluorescent sensor.

human IgG [7] = experiment: Structure-fluorescence relationships: Ig Orange vs BD-69 with human IgG; assay type: binding; conditions: 10 μM each, 20 mM HEPES pH 7.4
Description: Ig Orange (BDM-69) (10 μM) and BD-69 (10 μM) were incubated with different concentrations of human IgG in 20 mM HEPES buffer (pH 7.4) and the fluorescence intensities were recorded on a SpectraMax M2 plate reader (excitation: 530 nm; emission: 590 nm), as shown in FIG. 7a. Values are represented as means (n=3) of the fluorescence fold increase after incubation with the protein.

λmax (ABS) [1]: 574 nm | λmax (EM) [1]: 594 nm | φ (quantum yield) [2]: 0.32 | Kd (human IgG [4]): 71.7 ± 0.6 µM | Kd (human IgG [5]): 14.1 ± 0.9 µM | preferred binding region of the immunoglobulin [6]: preferred binding to the Fab region
SMILES: CC1=CC(/C=C/c2ccc(/C=C/c3ccccc3)cc2)=[N+]2C1=C(CCN)c1cccn1[B-]2(F)F [BDM-69]
turn-on fluorescence increase in the presence of human IgG (human IgG [3]; 20 mM HEPES buffer pH 7.4): 75 fold | selectivity profile against proteins and peptides (human IgG [3]; 20 mM HEPES pH 7.4, exc 510 nm): best selectivity profile among the whole library | higher fluorescence increase of Ig Orange relative to BD-69 vs. human IgG (human IgG [7]): 15 fold
